{"source": "patent US8329672B2", "about": "“Oral and/or topical compositions comprising prebiotics and fatty acid” (Cognis IP Management GmbH, priority 2004, dated 2012)", "key": {"Bifidobacterium": {"test_system": "Bifidobacterium", "experiment": "Stimulation of growth of Bifidobacterium in vitro (enumeration in human faecal homogenate culture)", "assay_type": "cell-based, Bifidobacterium spp", "conditions": "human faecal homogenate in diluted WC broth, incubated up to 24 hours, control 1.0 × 10^6", "procedure": "(§1) The stimulation of growth of microorganisms has been studied by enumerating bifidobacterium and lactobacilli in vitro in the presence of various test substances. More specifically, aliquots (1 mL) of human faecal homogenates (10 g per 100 mL diluent) were added to diluted WC broth (diluted 50:50 with 0.05M phosphate buffer) to which were added the test mixtures and a lactobacillus or bifidobacterium strain. For each of the combinations, parallel tubes were prepared with one set being inoculated with Bifidobacterium spp or Lactobacillus spp. All mixtures were then incubated for up to 24 hours and bacterial numbers enumerated."}, "Lactobacterium": {"test_system": "Lactobacterium", "experiment": "Stimulation of growth of lactobacilli in vitro (enumeration in human faecal homogenate culture)", "assay_type": "cell-based, Lactobacillus spp", "conditions": "human faecal homogenate in diluted WC broth, incubated up to 24 hours, control 2.8 × 10^5", "procedure": "as §1"}}, "data": [{"compound": "OC[C@H]1O[C@@H](O[C@H]2[C@H](O)[C@@H](O)[C@@H](O[C@]3(CO)O[C@H](CO)[C@@H](O)[C@@H]3O)O[C@@H]2CO)[C@H](O)[C@@H](O)[C@H]1O", "note": "[C2, Lactosucrose]", "values": [{"measurement": "Bacterial numbers (CFU/ml)", "setting": "Bifidobacterium; 1% prebiotic alone", "result": 1.1, "unit": "× × 10^7 CFU/ml"}, {"measurement": "Bacterial numbers (CFU/ml)", "setting": "Lactobacterium; 1% prebiotic alone", "result": 1.1, "unit": "× × 10^6 CFU/ml"}]}, {"compound": "Betaglucan [C4]", "values": [{"measurement": "Bacterial numbers (CFU/ml)", "setting": "Bifidobacterium; 1% prebiotic alone", "result": 1.2, "unit": "× × 10^7 CFU/ml"}, {"measurement": "Bacterial numbers (CFU/ml)", "setting": "Lactobacterium; 1% prebiotic alone", "result": 1.1, "unit": "× × 10^6 CFU/ml"}]}, {"compound": "CLA [C5]", "values": [{"measurement": "Bacterial numbers (CFU/ml)", "setting": "Bifidobacterium; 1% fatty acid alone", "result": 3.5, "unit": "× × 10^6 CFU/ml"}, {"measurement": "Bacterial numbers (CFU/ml)", "setting": "Lactobacterium; 1% fatty acid alone", "result": 4.2, "unit": "× × 10^5 CFU/ml"}]}, {"compound": "CLA-SE [C7]", "values": [{"measurement": "Bacterial numbers (CFU/ml)", "setting": "Bifidobacterium; 1% fatty acid alone", "result": 2.9, "unit": "× × 10^6 CFU/ml"}, {"measurement": "Bacterial numbers (CFU/ml)", "setting": "Lactobacterium; 1% fatty acid alone", "result": 4.4, "unit": "× × 10^5 CFU/ml"}]}, {"compound": "CLA-TG [C6]", "values": [{"measurement": "Bacterial numbers (CFU/ml)", "setting": "Bifidobacterium; 1% fatty acid alone", "result": 2.1, "unit": "× × 10^6 CFU/ml"}, {"measurement": "Bacterial numbers (CFU/ml)", "setting": "Lactobacterium; 1% fatty acid alone", "result": 4.4, "unit": "× × 10^5 CFU/ml"}]}, {"compound": "Lactolin [C3]", "values": [{"measurement": "Bacterial numbers (CFU/ml)", "setting": "Bifidobacterium; 1% prebiotic alone", "result": 1.6, "unit": "× × 10^7 CFU/ml"}, {"measurement": "Bacterial numbers (CFU/ml)", "setting": "Lactobacterium; 1% prebiotic alone", "result": 1.5, "unit": "× × 10^6 CFU/ml"}]}]}
